pIC50: −log10 of the molar value.
What was measured:
[1] = system: intracellular L. donovani amastigotes; test: Luminescent-based evaluation of intracellular anti-leishmanial activity in THP-1 macrophages; assay type: cell-based, Leishmania donovani; conditions: intracellular Leishmania donovani in THP1 macrophages, luminescence assay (Supplemental Table 2); read-out: Lum IC50
Experimental: Luminescent strains, L. donovani LV82 expressing firefly luciferase (a kind gift from Dr. Abhay Satoskar, Ohio State University) and L. mexicana (NR-51210, ATCC) expressing renilla luciferase were used to evaluate the effect of the compounds in intracellular and extracellular conditions. Wild-type L. donovani LV82 (ATCC) were used for Giemsa staining based experiments. All parasites were cultured at 25°C and 5% CO2 in M199 media (Corning) supplemented with 10% FBS, 1% penicillin/streptomycin, and hemin (0.01 mg/mL), and used in experiments up to passage 15.
THP-1 cells were seeded in a 96 well plate (25,000 cells/well) overnight then differentiated with 150 nM phorbol 12-myristate 13-acetate (PMA) over 72 hours (Supplemental Figure 1). […] Briefly, promastigotes of a known cell density were resuspended in RPMI media (with 10% FBS, 1% P/S and 0.05 mM β-mercaptoethanol) and incubated with adhered THP-1 cells over 18 hours. After infection, cells were washed three times with fresh media to remove extracellular promastigotes.
Infected macrophages were then treated with compounds solubilized in DMSO ranging from 0.1-10 μM in concentrations. After 72 hours of treatment, the viability of the amastigotes within macrophages was determined using Promega firefly luminescence assay (Cat E1500) or Pierce Renilla luciferase assay (Cat 16166) for L. donovani and L. mexicana strains, respectively. Briefly, media was removed, and cells were lysed with the assay lysis buffer. The luciferase substrate was then incubated with the lysed cells for 10 min at room temperature and luminescence of live Leishmania was measured in a white opaque 96 well plate using a Biotek plate reader.

THP-1 macrophages = test: Effect of compounds on host cell viability (MTT); assay type: cell-based; conditions: read-out: 24h LC50; THP1 macrophages, 24-hour incubation, MTT assay (Supplemental Table 2)
Experimental: The cells were cultured at 37C, 5% CO2 in RPMI medium (ATCC) supplemented with 10% FBS, 1% Penicillin/Streptomycin and 0.05 mM of β-mercaptoethanol. Cells were used in experiments up to passage 10.
Effect of the compounds on THP-1 cell viability measured using thiazolyl blue tetrazolium bromide which measures cell metabolic activity (MTT). THP-1 cells were seeded in a 96 well plate (25,000 cells/well) overnight then differentiated with 150 nM phorbol 12-myristate 13-acetate (PMA) over 72 hours. Macrophages were then treated with compounds resuspended in RPMI media (1- 50 μM) for 24 hours. Media was replaced with thiazolyl blue tetrazolium bromide solubilized in RPMI media (0.5 mg/mL) and incubated at 37°C for 2 hours. The reduced formazan crystals were solubilized with isopropyl alcohol and the absorbance of the resulting solution was measured at 560 nm with a background subtraction at 670 nm. […] This process was repeated with a 72-hr incubation and extended concentration range (1 - 300 μM) for select compounds.

| SMILES | pIC50 [1] | CC50 (THP-1 macrophages) |
| --- | --- | --- |
| O=[N+]([O-])c1ccc(-n2cc(C(F)(F)F)nc2-c2ccc(-c3ccc(C(F)(F)F)cc3)cc2)cc1 [Compound 154] | 5.54 | 25.5 µM |
| FC(F)(F)c1cc(-c2ccccc2C(F)(F)F)n(-c2ccc(Br)cc2)n1 [Compound 255] | < 5.00 | > 50 µM |
| CC(C)(C)OC(=O)NC1CCN(c2ccc(-n3nc(C(F)(F)F)cc3-c3ccc(-c4ccc(C(F)(F)F)cc4)cc3)cc2)C1 (stereo not drawn) [Compound 128] | < 5.00 | > 50 µM |
| COc1ccc(-n2nc(C(F)(F)F)cc2-c2ccc(-c3ccc(C(F)(F)F)cc3)cc2)c(C)c1 [Compound 187] | < 5.00 | > 50 µM |
| NS(=O)(=O)c1ccc(-n2nc(C(F)(F)F)cc2-c2ccc(-c3ccc(C(F)(F)F)cc3)cc2)cc1 [Compound 188] | 5.51 | 9 µM |
| FC(F)(F)c1cn(-c2ccc(Br)cc2)c(-c2ccc(Oc3ccccc3)cc2)n1 [Compound 219] | < 5.00 | > 50 µM |
| NCC(=O)NC1CCN(c2ccc(-n3nc(C(F)(F)F)cc3-c3ccc(-c4ccc(C(F)(F)F)cc4)cc3)cc2)C1 (stereo not drawn) [Compound 119] | < 5.00 | 37.2 µM |
| FC(F)(F)c1ccc(-c2ccc(-c3cc(C(F)(F)F)nn3-c3ccc(N4CCNCC4)cc3)cc2)cc1 [Compound 220] | 5.89 | 15.4 µM |
| COc1ccc(-c2cc(C(F)(F)F)nn2-c2ccc(Br)cc2)cc1OC [Compound 251] | < 5.00 | > 50 µM |
| FC(F)(F)c1cc(C2CCCCC2)n(-c2ccc(NC3CCN(Cc4ccccc4)C3)cc2)n1 (stereo not drawn) [Compound 356] | 5.70 | 15.5 µM |
| FC(F)(F)c1cc(-c2ccc(Cl)cc2)n(-c2ccc(Br)cc2)n1 [Compound 194] | < 5.00 | > 50 µM |
| NCCCNC1CCN(c2ccc(-n3nc(C(F)(F)F)cc3C3CCCCC3)cc2)CC1 [Compound 420] | 6.00 | 7 µM |
| O=C(CCCCBr)N1CCC(Nc2ccc(-n3nc(C(F)(F)F)cc3-c3ccc(-c4ccc(C(F)(F)F)cc4)cc3)cc2)CC1 [Compound 117] | 5.21 | > 50 µM |
| FC(F)(F)c1ccc(-c2ccc(-c3nc(C(F)(F)F)c[nH]3)cc2)cc1 [Compound 75] | < 5.00 | 48.8 µM |
| O=C(Nc1ccc(-n2cc(C(F)(F)F)nc2-c2ccc(-c3ccccc3)cc2)cc1)c1ccccc1 [Compound 88] | < 5.00 | > 50 µM |
| O=C(c1ccc(-n2cc(C(F)(F)F)nc2-c2ccc(-c3ccc(C(F)(F)F)cc3)cc2)c(F)c1)N1CCC(NCc2cccc(F)c2)C1 (stereo not drawn) [Compound 178] | < 5.00 | > 50 µM |
| FC(F)(F)c1ccc(-c2ccc(-c3cc(C(F)(F)F)nn3-c3ccc(OC4CCNCC4)cc3)cc2)cc1 [Compound 34] | 5.22 | > 50 µM |
| FC(F)(F)c1cc(-c2ccc(-c3ccsc3)cc2)n(-c2ccc(N3CCNCC3)cc2)n1 [Compound 210] | 5.60 | 10.5 µM |
| FC(F)(F)c1ccc(-c2ccc3nc[nH]c3c2)cc1 [Compound 135] | < 5.00 | > 50 µM |
| NC1CCN(C(=O)c2ccc(-n3cc(C(F)(F)F)nc3-c3ccc(-c4ccc(C(F)(F)F)cc4)cc3)c(F)c2)C1 (stereo not drawn) [Compound 199] | 5.89 | 9.4 µM |
| Oc1ccc(CN2CCC(Nc3ccc(-n4nc(C(F)(F)F)cc4C4CCCCC4)cc3)CC2)cc1 [Compound 392] | 5.33 | 25.9 µM |
| FC(F)(F)c1cc(C2CCCCC2)n(-c2ccc(NC3CCN(Cc4ccccc4)CC3)cc2)n1 [Compound 381] | 5.21 | 12.4 µM |
| FC(F)(F)c1c[nH]c(-c2ccc(Oc3ccccc3)cc2)n1 [Compound 218] | < 5.00 | > 50 µM |
| CS(=O)(=O)c1ccc(-n2nc(C(F)(F)F)cc2-c2ccc(-c3ccc(C(F)(F)F)cc3)cc2)cc1 [Compound 179] | < 5.00 | 45 µM |
| FC(F)(F)c1ccc(-c2ccc(-c3nc(C(F)(F)F)cn3-c3ccc(N4CCNCC4)cc3)cc2)cc1 [Compound 74] | 5.55 | 6.5 µM |
| FC(F)(F)c1cc(C2CCCCC2)n(-c2ccc(N3CCC(NCc4ccccc4)CC3)cc2)n1 [Compound 336] | 5.62 | 15.9 µM |

| SMILES | pIC50 [1] | CC50 (THP-1 macrophages) |
| --- | --- | --- |
| CC(C)C#Cc1ccc(-c2cc(C(F)(F)F)nn2-c2ccc(N3CCNCC3)cc2)cc1 [Compound 45] | 5.43 | 3.2 µM |
| FC(F)(F)c1cc(-c2ccco2)n(-c2ccc(NC3CCNC3)cc2)n1 (stereo not drawn) [Compound 273] | 5.31 | 15.6 µM |
| NC1CCN(c2ccc(-n3nc(C(F)(F)F)cc3-c3ccc(-c4ccc(S(F)(F)(F)(F)F)cc4)cc3)cc2)C1 (stereo not drawn) [Compound 106] | 5.09 | 6 µM |
| N#Cc1ccc(-n2cc(C(F)(F)F)nc2-c2ccc(-c3ccccc3)cc2)cc1 [Compound 180] | < 5.00 | > 50 µM |
| NCC(=O)Nc1ccc(-c2cc(C(F)(F)F)nn2-c2ccc(-c3ccc(C(F)(F)F)cc3)cc2)cc1 [Compound 155] | 5.40 | 6.1 µM |
| NC1CCN(c2ccc(-n3nc(C(F)(F)F)c4ccc(-c5ccc(C(F)(F)F)cc5)cc43)cc2)C1 (stereo not drawn) [Compound 141] | 5.44 | 7.7 µM |
| FC(F)(F)c1ccc(-c2ccc(-c3cc(C(F)(F)F)nn3-c3ccc(N4CCC(NCc5ccc(Cl)c(C(F)(F)F)c5)CC4)cc3)cc2)cc1 [Compound 120] | < 5.00 | > 50 µM |
| CC(=O)NCCCCCN1CCC(Oc2ccc(-n3nc(C(F)(F)F)cc3C3CCCCC3)cc2)CC1 [Compound 431] | 5.32 | 22.4 µM |
| CC(=O)NCCCN1CCC(Oc2ccc(-n3nc(C(F)(F)F)cc3C3CCCCC3)cc2)CC1 [Compound 428] | 5.05 | 11.4 µM |
| N#Cc1ccc(CN2CCC(Oc3ccc(-n4nc(C(F)(F)F)cc4C4CCCCC4)cc3)CC2)cc1 [Compound 373] | 5.15 | > 50 µM |
| NCC(=O)NC1CCN(c2ccc(-n3nc(C(F)(F)F)cc3-c3ccc(-c4ccc(C(F)(F)F)cc4)cc3)cc2)CC1 [Compound 111] | 5.54 | 5.2 µM |
| FC(F)(F)c1cc(-c2ccc(-c3ccccc3)cc2)n(-c2ccc(NCCc3ccccc3)cc2)n1 [Compound 62] | < 5.00 | > 50 µM |
| CC(C)c1cc(C(F)(F)F)nn1-c1ccc(NC2CCNC2)cc1 (stereo not drawn) [Compound 315] | 5.48 | 25.1 µM |
| FC(F)(F)c1ccc(-c2ccc(-c3cc(C(F)(F)F)nn3-c3cccc(Br)c3)cc2)cc1 [Compound 190] | < 5.00 | > 50 µM |
| CC(C)C#Cc1ccc(-c2cc(C(F)(F)F)nn2-c2ccc(N3CCC(NCc4ccccc4)C3)cc2)cc1 (stereo not drawn) [Compound 99] | < 5.00 | 29.2 µM |
| FC(F)(F)c1ccc(-c2ccc(-c3cc(C(F)(F)F)nn3-c3ccc(NCCCCl)cc3)cc2)cc1 [Compound 67] | < 5.00 | > 50 µM |
| FC(F)(F)c1cc(C2CCCCC2)n(-c2ccc(OC3CCNCC3)cc2)n1 [Compound 370] | 5.59 | 19.5 µM |
| FC(F)(F)c1ccc(-c2ccc(-c3cc(C(F)(F)F)nn3-c3ccc(OC4CCNC4)cc3)cc2)cc1 (stereo not drawn) [Compound 144] | < 5.00 | 5.4 µM |
| FC(F)(F)c1ccc(-c2ccc(-c3cc(C(F)(F)F)nn3-c3ccc(NCCCCOc4ccccc4)cc3)cc2)cc1 [Compound 68] | < 5.00 | 34.7 µM |
| O=C(CNCc1ccc(O)cc1)Nc1ccc(-n2nc(C(F)(F)F)cc2C2CCCCC2)cc1 [Compound 355] | 5.70 | 21.2 µM |
| CC(C)(C)OC(=O)NC1CCN(C(=O)c2ccc(-n3cc(C(F)(F)F)nc3-c3ccc(-c4ccc(C(F)(F)F)cc4)cc3)c(F)c2)C1 (stereo not drawn) [Compound 182] | 5.23 | 18 µM |
| NC(Cc1ccccc1)C(=O)Nc1ccc(-n2cc(C(F)(F)F)nc2-c2ccc(-c3ccc(C(F)(F)F)cc3)cc2)cc1 (stereo not drawn) [Compound 80] | 5.52 | 8.2 µM |
| Nc1ccc(-n2cc(C(F)(F)F)nc2-c2ccc(Oc3ccccc3)cc2)cc1 [Compound 221] | < 5.00 | > 50 µM |
| FC(F)(F)c1cn(-c2ccc(N3CCC(NCc4ccccc4)C3)cc2)c(-c2ccc(-c3ccccc3)cc2)n1 (stereo not drawn) [Compound 84] | 5.19 | > 50 µM |
| N#Cc1ccc(-n2cc(C(F)(F)F)cc2-c2ccc(-c3ccc(C(F)(F)F)cc3)cc2)cc1 [Compound 205] | < 5.00 | > 50 µM |
